Data as given in PMC4774972, “Activity and Predicted Nephrotoxicity of Synthetic Antibiotics Based on Polymyxin B” (Journal of Medicinal Chemistry, 2016).
Values after ≈ are worked out from the molar mass of the structure shown. Values belong to the molecule of their own block, whether it stands above or below them. Numbered stars: 1 amine (or outer) side, 2 acyl side, 3 side chain; on linkers, the order of the positions; unused ones are H or OH. Bridge positions count the residues as written; N and C are the ends. Square brackets hold non-standard residues; d marks the D form. Peptide text beside a SMILES is read from it. * marks the point of attachment. ξ: configuration not given here. ξGly(octyl) = CCCCCCCCC(N)C(=O)O; NH(2-ClPh) = Clc1ccccc1N*; dDab = NCC[C@@H](N)C(=O)O; Octanoyl = CCCCCCCC(=O)*; Dab = NCC[C@H](N)C(=O)O; CO = O=C([*:1])[*:2]

What was measured:
HepG2 = settings: CC50 HepG2 (µM)
[1] = system: K. pneumoniae CI Koprana 100650661:1, PmxR; settings: MIC K. pneumoniae CI Koprana 100650661:1, PmxR (µg/mL)
[2] = system: K. pneumoniae ATTC BAA-2146, NDM-1 pos; settings: MIC K. pneumoniae ATTC BAA-2146, NDM-1 pos (µg/mL)
[3] = system: K. pneumoniae CI 138-16357-20362, PmxR; settings: MIC K. pneumoniae CI 138-16357-20362, PmxR (µg/mL)
[4] = system: P. aeruginosa FADDI-PA070, PmxR; settings: MIC P. aeruginosa FADDI-PA070, PmxR (µg/mL)
[5] = system: S. aureus ATCC 25923, MSSA; settings: MIC S. aureus ATCC 25923, MSSA (µg/mL)
[6] = system: P. aeruginosa PA9704, PmxR; settings: MIC P. aeruginosa PA9704, PmxR (µg/mL)
[7] = system: A. baumannii CI Ptyela 100734512:2, PmxR; settings: MIC A. baumannii CI Ptyela 100734512:2, PmxR (µg/mL)
A. baumannii ATCC 19606 [8] = settings: MIC A. baumannii ATCC 19606 (µg/mL)
[9] = system: K. pneumoniae CI Koprana 100650661:1, PmxR; assay: microbe, parasite or virus in culture; type: cell-based, Klebsiella pneumoniae; settings: carbapenem & polymyxin resistant clinical isolate; MHB, 5 × 10^5 CFU/mL, 18 h at 37 °C
[10] = system: K. pneumoniae CI 138-16357-20362, PmxR; assay: microbe, parasite or virus in culture; type: cell-based, Klebsiella pneumoniae; settings: carbapenem & polymyxin resistant clinical isolate; MHB, 5 × 10^5 CFU/mL, 18 h at 37 °C
A. baumannii ATCC 19606 [11] = type: cell-based, Acinetobacter baumannii; settings: ATCC 19606, 18 h
Method: (§1) Bacteria were either obtained from American Type Culture Collection (ATCC; Manassas, VA, USA) or independent academic clinical isolate collections, as listed in Table S2. Bacteria were cultured in nutrient broth (NB; Bacto Laboratories, catalog no. 234000) or Muller Hinton broth (MHB; Bacto Laboratories, catalog no. 211443) at 37 °C overnight with shaking (∼180 rpm). A sample of each culture was then diluted 50-fold in fresh MHB and incubated at 37 °C for 1.5–3 h with shaking (∼180 rpm). Compound stock solutions were prepared as 0.64 or 2.56 mg/mL in water. The compounds, at twice the final desired concentration, were serially diluted 2-fold across the wells of 96-well plates (Polystyrene, Corning, catalogue No. 3370). Mid log phase bacterial cultures (after 1.5–3 h incubation) were diluted to a final concentration of 5 × 10^5 colony forming units (CFU)/mL, and 50 μL was added to each well giving a final compound concentration range of 32 μg/mL to 0.015 μg/mL (128–0.06 μg/mL for colistin and polymyxin B against the polymyxin resistant clinical isolates). MICs were determined visually after 18 h of incubation at 37 °C, with the MIC defined as the lowest compound concentration at which no bacterial growth was visible.
(§2) Table S2. Bacterial strains used for Minimum Inhibitory Concentration (MIC) […]
(§3) Organism Strain Strain description Strain Source
(§4) Escherichia coli ATCC 25922 FDA strain Seattle 1946 ATCC
(§5) Klebsiella pneumoniae ATCC 13883 Control strain ATCC
(§6) Klebsiella pneumoniae ATCC 700603 Multi-drug resistant ATCC
(§7) Klebsiella pneumoniae BAA-2146 Metallo-beta-lactamase- ATCC
(§8) Acinetobacter baumannii ATCC 19606 Type strain ATCC
(§9) Pseudomonas aeruginosa ATCC 27853 Type strain ATCC
(§10) Pseudomonas aeruginosa FADDI-PA070 Clinical isolate, Nation and Li labs, polymyxin resistant Monash University
(§11) Clinical isolate, Wang Hengzhuang, Pseudomonas aeruginosa PA9704 polymyxin resistant University Hospital of […]
(§12) Ptyela Clinical isolate, Ilias Karaiskos and Acinetobacter baumannii Carbapenem & Helen Giamarellou
(§13) Clinical isolate, Medicine, Hygeia
(§14) Klebsiella pneumoniae Koprana Carbapenem, & General Hospital, […]
(§15) Clinical isolate, (Instituto Dante […]
(§16) polymyxin resistant Cardiologia, São […]

[12] = system: A. baumannii CI Ptyela 100734512:2, PmxR; assay: microbe, parasite or virus in culture; type: cell-based, Acinetobacter baumannii; settings: carbapenem & polymyxin resistant clinical isolate; MHB, 5 × 10^5 CFU/mL, 18 h at 37 °C
Method: as §1, §2, §3, §4, §5, §6, §7, §8, §9, §10, §11, §12, §13, §14, §15, §16

HepG2 cells = assay: Cytotoxicity assay (resazurin assay); type: cell-based, human; settings: 4000 cells/well, 24 h incubation with compound, fluorescence 560/590
Method: Cytotoxicity to HEK293 and HepG2 cells was determined using the resazurin assay.[67],[68] […] Compounds were then added into each well. After 24 h incubation, 5 μM resazurin was added per well and incubated at 37 °C for 2 h. Fluorescence intensity was then read using a Polarstar Omega with excitation/emission 560/590. The data were then analyzed using GraphPad Prism 6 software. CC50 values were determined using GraphPad Prism 6 software (Inc. La Jolla, CA).

P. aeruginosa ATCC 27853 [13] = assay: microbe, parasite or virus in culture; type: cell-based, Pseudomonas aeruginosa; settings: ATCC 27853, 18 h
Method: as §1, §2, §3, §4, §5, §6, §7, §8, §9, §10, §11, §12, §13, §14, §15, §16

[14] = system: S. aureus ATCC 25923, MSSA; assay: microbe, parasite or virus in culture; type: cell-based, Staphylococcus aureus; settings: ATCC 25923, 18 h
Method: as §1, §2, §3, §4, §5, §6, §7, §8, §9, §10, §11, §12, §13, §14, §15, §16

[15] = system: K. pneumoniae ATCC 700603, MDR; settings: MIC K. pneumoniae ATCC 700603, MDR(µg/mL)
K. pneumoniae ATCC 13883 [16] = settings: MIC K. pneumoniae ATCC 13883 (µg/mL)
P. aeruginosa ATCC 27853 [17] = settings: MIC P. aeruginosa ATCC 27853 (µg/mL)
E. coli ATCC 25922 [18] = settings: MIC E. coli ATCC 25922 (µg/mL)
E. coli ATCC 25922 [19] = assay: microbe, parasite or virus in culture; type: cell-based, Escherichia coli; settings: ATCC 25922, 18 h
Method: as §1, §2, §3, §4, §5, §6, §7, §8, §9, §10, §11, §12, §13, §14, §15, §16

[20] = system: P. aeruginosa FADDI-PA070, PmxR; type: cell-based, Pseudomonas aeruginosa; settings: polymyxin resistant clinical isolate; MHB, 5 × 10^5 CFU/mL, 18 h at 37 °C
Method: as §1, §2, §3, §4, §5, §6, §7, §8, §9, §10, §11, §12, §13, §14, §15, §16

[21] = system: P. aeruginosa PA9704, PmxR; type: cell-based, Pseudomonas aeruginosa; settings: polymyxin resistant clinical isolate; MHB, 5 × 10^5 CFU/mL, 18 h at 37 °C
Method: as §1, §2, §3, §4, §5, §6, §7, §8, §9, §10, §11, §12, §13, §14, §15, §16

K. pneumoniae ATCC 13883 [22] = assay: microbe, parasite or virus in culture; type: cell-based, Klebsiella pneumoniae; settings: ATCC 13883, 18 h

SMILES: CC(C)C[C@@H]1NC(=O)[C@@H](Cc2ccccc2)NC(=O)[C@H](CCN)NC(=O)[C@@H](NC(=O)[C@@H](CO)NC(=O)[C@@H](NC(=O)[C@H](CCN)NC(=O)Nc2ccccc2Cl)[C@@H](C)O)CCNC(=O)[C@H]([C@@H](C)O)NC(=O)[C@H](CCN)NC(=O)[C@H](CCN)NC1=O [Compound 17] ({NH(2-ClPh)-CO}-[Dab]T[dS][Dab][Dab][dF]L[Dab][Dab]T; lactam 4-C)
- CC50 (HepG2): > 300 µM
- MIC [1]: > 32 µg/mL
- MIC [2]: > 32 µg/mL
- MIC [3]: > 32 µg/mL
- MIC [4]: > 32 µg/mL
- MIC [5]: > 32 µg/mL
- MIC [6]: > 32 µg/mL
- MIC [7]: > 32 µg/mL
- MIC (A. baumannii ATCC 19606 [8]): > 32 µg/mL
- MIC K. pneumoniae CI Koprana 100650661:1, PmxR [9]: >32 µg/mL
- MIC K. pneumoniae CI 138-16357-20362, PmxR [10]: >32 µg/mL

- MIC A. baumannii ATCC 19606 (A. baumannii ATCC 19606 [11]): 1(1) μg/mL
SMILES: CCCCCCCCC1NC(=O)[C@@H](Cc2ccccc2)NC(=O)[C@H](CCN)NC(=O)[C@@H](NC(=O)[C@H](CCN)NC(=O)[C@@H](NC(=O)[C@H](CCN)NC(=O)CCCCCCC)[C@@H](C)O)CCNC(=O)[C@H]([C@@H](C)O)NC(=O)[C@H](CCN)NC(=O)[C@H](CCN)NC1=O (some centres unmarked) [Compound 28] (Octanoyl-[Dab]T[Dab][Dab][Dab][dF][ξGly(octyl)][Dab][Dab]T; lactam 4-C)

SMILES: CCCCCCCC(=O)N[C@H](C(=O)NCC(=O)N[C@H]1CCNC(=O)[C@H]([C@@H](C)O)NC(=O)[C@H](CCN)NC(=O)[C@H](CCN)NC(=O)[C@H](CC(C)C)NC(=O)[C@@H](Cc2ccccc2)NC(=O)[C@H](CCN)NC1=O)[C@@H](C)O [Compound 39] (Octanoyl-TG[Dab][Dab][dF]L[Dab][Dab]T; lactam 3-C)
- MIC A. baumannii CI Ptyela 100734512:2, PmxR [12]: >32 µg/mL
- HepG2 - CC50 (HepG2 cells): >300 µM
- CC50 (HepG2): > 300 µM
- MIC P. aeruginosa ATCC 27853 (P. aeruginosa ATCC 27853 [13]): 16 µg/mL (≈ 15.3 µM)
- MIC S. aureus ATCC 25923, MSSA [14]: >32 µg/mL
- MIC A. baumannii ATCC 19606 (A. baumannii ATCC 19606 [11]): >32 µg/mL
- MIC [1]: > 32 µg/mL
- MIC [15]: > 32 µg/mL
- MIC (K. pneumoniae ATCC 13883 [16]): > 32 µg/mL
- MIC [2]: > 32 µg/mL
- MIC [3]: > 32 µg/mL
- MIC [4]: > 32 µg/mL
- MIC (P. aeruginosa ATCC 27853 [17]): 16 µg/mL (≈ 15.3 µM)
- MIC [5]: > 32 µg/mL
- MIC [6]: > 32 µg/mL
- MIC [7]: > 32 µg/mL
- MIC (E. coli ATCC 25922 [18]): 4 µg/mL (≈ 3.82 µM)
- MIC (A. baumannii ATCC 19606 [8]): > 32 µg/mL
- MIC E. coli ATCC 25922 (E. coli ATCC 25922 [19]): 4 µg/mL (≈ 3.82 µM)
- MIC P. aeruginosa FADDI-PA070, PmxR [20]: >32 µg/mL
- MIC P. aeruginosa PA9704, PmxR [21]: >32 µg/mL
- MIC K. pneumoniae CI Koprana 100650661:1, PmxR [9]: >32 µg/mL
- MIC K. pneumoniae ATCC 13883 (K. pneumoniae ATCC 13883 [22]): >32 µg/mL
- MIC K. pneumoniae CI 138-16357-20362, PmxR [10]: >32 µg/mL

SMILES: CCCCCCCC(=O)N[C@H](CCN)C(=O)N[C@H](C(=O)NCC(=O)N[C@H]1CCNC(=O)[C@H]([C@@H](C)O)NC(=O)[C@H](CCN)NC(=O)[C@H](CCN)NC(=O)[C@H](CC(C)C)NC(=O)[C@@H](Cc2ccccc2)NC(=O)[C@H](CCN)NC1=O)[C@@H](C)O [Compound 40] (Octanoyl-[dDab]TG[Dab][Dab][dF]L[Dab][Dab]T; lactam 4-C)
- MIC A. baumannii CI Ptyela 100734512:2, PmxR [12]: >32 µg/mL
- HepG2 - CC50 (HepG2 cells): >300 µM
- CC50 (HepG2): > 300 µM
- MIC S. aureus ATCC 25923, MSSA [14]: >64 µg/mL
- MIC A. baumannii ATCC 19606 (A. baumannii ATCC 19606 [11]): >64 µg/mL
- MIC [1]: > 32 µg/mL
- MIC (K. pneumoniae ATCC 13883 [16]): > 32 µg/mL
- MIC [3]: > 32 µg/mL
- MIC [4]: > 32 µg/mL
- MIC [5]: > 64 µg/mL
- MIC [6]: > 32 µg/mL
- MIC [7]: > 32 µg/mL
- MIC (E. coli ATCC 25922 [18]): > 32 µg/mL
- MIC (A. baumannii ATCC 19606 [8]): > 64 µg/mL
- MIC E. coli ATCC 25922 (E. coli ATCC 25922 [19]): >32 µg/mL
- MIC P. aeruginosa FADDI-PA070, PmxR [20]: >32 µg/mL
- MIC P. aeruginosa PA9704, PmxR [21]: >32 µg/mL
- MIC K. pneumoniae CI Koprana 100650661:1, PmxR [9]: >32 µg/mL
- MIC K. pneumoniae ATCC 13883 (K. pneumoniae ATCC 13883 [22]): >32 µg/mL
- MIC K. pneumoniae CI 138-16357-20362, PmxR [10]: >32 µg/mL
